Reference: publication PMC9402538, “Rational design of a sensitivity-enhanced tracer for discovering efficient APC–Asef inhibitors” (Nature Communications, 2022)
Where a SMILES comes first, the peptide text is derived from it. [ ]: non-standard residue; d: D form. The star is where a group is joined. Bz = O=C(c1ccccc1)*

Assays:
APC = biological target: T1, APC (Homo sapiens, UniProt P25054); assay: FP competitive assay using tracer 1; type: binding
T1 sequence (P25054 303-739): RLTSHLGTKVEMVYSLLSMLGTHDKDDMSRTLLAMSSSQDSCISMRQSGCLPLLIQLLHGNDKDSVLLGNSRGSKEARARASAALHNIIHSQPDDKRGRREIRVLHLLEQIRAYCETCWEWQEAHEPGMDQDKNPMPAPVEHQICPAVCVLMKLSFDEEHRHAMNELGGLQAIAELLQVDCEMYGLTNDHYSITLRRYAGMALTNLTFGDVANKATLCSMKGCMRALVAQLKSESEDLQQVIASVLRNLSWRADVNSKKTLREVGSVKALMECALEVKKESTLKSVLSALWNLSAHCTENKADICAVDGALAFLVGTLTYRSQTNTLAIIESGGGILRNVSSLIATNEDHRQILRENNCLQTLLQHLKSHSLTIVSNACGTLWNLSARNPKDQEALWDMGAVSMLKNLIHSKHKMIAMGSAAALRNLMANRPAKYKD
Protocol: In our previous study, we established an FP assay for screening APC–Asef inhibitors using FITC-labeled tracer 1 (Ac–^176[…][FITC]^195–NH2)[16]. […]. However, their Kd values measured by isothermal titration calorimetry (ITC) actually vary up to more than 20 times[16],[17]. […].
FITC-labeled tracer peptides were obtained from Changzhou Kanglong Biotech Ltd. (Changzhou, Jiangsu, China). […]. The FP signal changes upon tracer binding were measured after 1.5 h of incubation using a Synergy neo microplate reader (BioTek Instruments, Inc.) and plotted against the protein concentration. The corresponding EC50 values were generated by fitting the curves with a nonlinear regression model. […]. To make a working solution, APC (303–739) was diluted in FP buffer (50 mM HEPES, pH 7.5, 300 mM NaCl, 1 mM EDTA, 1 mM DTT). […] The FP signals were measured after 1.5 h of incubation at room temperature using a Synergy neo microplate reader. Three controls were included on each plate, i.e., blank (without protein and tracer), 100% inhibition (free tracer only), and 0% inhibition (protein/tracer complex only) controls. All experiments were performed in triplicate. The IC50 values of peptides were calculated by nonlinear regression analysis using GraphPad Prism 7.0 software.

APC (303–739) = biological target: T2, APC (303–739) (Homo sapiens, UniProt P25054); assay: FP competitive assay using tracer 7; type: binding; details: IC50, Tracer 7, Supplementary Table 4
T2 sequence (P25054 303-739): T1 sequence (P25054 303-739)
Protocol: FITC-labeled tracer peptides were obtained from Changzhou Kanglong Biotech Ltd. (Changzhou, Jiangsu, China). […]. The FP signal changes upon tracer binding were measured after 1.5 h of incubation using a Synergy neo microplate reader (BioTek Instruments, Inc.) and plotted against the protein concentration. The corresponding EC50 values were generated by fitting the curves with a nonlinear regression model. […]. To make a working solution, APC (303–739) was diluted in FP buffer (50 mM HEPES, pH 7.5, 300 mM NaCl, 1 mM EDTA, 1 mM DTT). The diluted APC protein (91 μL) was combined with a serial dilution of peptides (4 μL) and incubated at room temperature for 1 h, followed by the addition of 5 μL of 400 nM tracer 7. The FP signals were measured after 1.5 h of incubation at room temperature using a Synergy neo microplate reader. Three controls were included on each plate, i.e., blank (without protein and tracer), 100% inhibition (free tracer only), and 0% inhibition (protein/tracer complex only) controls. All experiments were performed in triplicate. The IC50 values of peptides were calculated by nonlinear regression analysis using GraphPad Prism 7.0 software.

| SMILES | IC50 (APC) [µM] | IC50 (APC (303–739)) [µM] |
| --- | --- | --- |
| C[C@H](NC(=O)c1ccccc1)C(=O)NCC(=O)N[C@@H](CCC(=O)O)C(=O)N[C@@H](CO)C(=O)N[C@@H](Cc1ccc(O)cc1)C(=O)N[C@@H](Cc1ccc(O)cc1)C(=O)N[C@@H](CCC(=O)O)C(N)=O [MAI-458] (Bz-AGESYYE-NH2) | 0.59 ± 0.14 | 0.9 ± 0.03 |
| CC(C)C[C@H](NC(=O)[C@H](CO)NC(=O)[C@H](CCC(=O)O)NC(=O)CNC(=O)[C@H](C)NC(=O)c1ccccc1)C(=O)N[C@@H](Cc1ccc(O)cc1)C(=O)N[C@H](CCC(=O)O)C(N)=O [MAI-465] (Bz-AGESLY[dE]-NH2) | 0.75 ± 0.15 | – |
